One experiment addresses T1, CDK6/CyclinD1 (Homo sapiens, UniProt Q00534).
T1 construct: purchased Carna 04-114
Nature of the experiment: In vitro cell-free CDK6/CyclinD1 kinase activity assay (TR-FRET). Type of experiment: biochemical. Conditions: ATP at Km. Summed up: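 TR-FRET readout: reaction stopped with EDTA-containing detection buffer holding peptide antibody and Sa-XL665, 1 h at room temperature, then 665/615 nm emission ratio (excitation 330 nm) taken as activity. 8-10 compound concentrations from DMSO stocks at 200× working concentration; IC50 fitted versus no-inhibitor and no-enzyme controls.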

The subject of a further experiment is MCF-7 cells. Nature of the experiment: Cell viability assay, MCF-7 cells (CellTiter-Glo, 168 h). Type of experiment: cell-based. To be noted: Homo sapiens, MCF7. Summed up:
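MCF-7 cells (about 3,000/well) were incubated with compound at 8 concentrations for 168 h at 37 °C, 5% CO2. Viability was read by CellTiter-Glo luminescence, and IC50 intervals were derived from survival rates.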
Background: In ATP-based viability assays light output follows the ATP content of the culture.

The structures appear in SMILES notation. Bounds are passed on as bounds.

T1 sequence (Q00534 whole entry): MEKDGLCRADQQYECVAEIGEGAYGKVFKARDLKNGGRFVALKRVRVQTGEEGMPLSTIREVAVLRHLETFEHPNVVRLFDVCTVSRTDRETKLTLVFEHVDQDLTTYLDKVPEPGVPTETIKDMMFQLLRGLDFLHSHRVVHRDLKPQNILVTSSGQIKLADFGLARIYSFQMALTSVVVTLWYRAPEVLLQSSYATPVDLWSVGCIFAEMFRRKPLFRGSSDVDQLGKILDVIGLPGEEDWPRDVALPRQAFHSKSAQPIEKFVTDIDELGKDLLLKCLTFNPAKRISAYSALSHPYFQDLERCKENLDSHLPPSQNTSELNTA
T1 sequence (P24385 whole entry partner): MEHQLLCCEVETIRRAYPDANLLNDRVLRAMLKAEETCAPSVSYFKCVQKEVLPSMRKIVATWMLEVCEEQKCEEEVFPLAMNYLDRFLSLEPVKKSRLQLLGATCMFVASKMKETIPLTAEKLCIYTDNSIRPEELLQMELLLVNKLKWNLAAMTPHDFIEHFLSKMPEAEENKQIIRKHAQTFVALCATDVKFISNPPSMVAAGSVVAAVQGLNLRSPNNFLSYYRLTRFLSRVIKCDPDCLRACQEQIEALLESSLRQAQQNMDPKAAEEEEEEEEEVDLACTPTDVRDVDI

`Cc1noc(C)c1-c1c(-c2cnn(C)c2)c(-c2c(C)noc2C)n2nc(Nc3ccc(N4CCNCC4)cn3)ncc12` [Reference Example 131, reference compound]: the IC50 on CDK6/CyclinD1 was more than 3 µM; in the experiment with MCF-7 cells, more than 10 µM.

As to `COC(=O)c1cc2cnc(Nc3ccc(N4CCNCC4)cn3)nn2c1-c1cccc2cccnc12` [Reference Example 132, reference compound], the IC50 at CDK6/CyclinD1 is more than 3 µM; in the experiment with MCF-7 cells it was more than 10 µM.

Turning to `COC(=O)c1cc2cnc(Nc3ccc(N4CC5(CNC5)C4)cn3)nn2c1-c1cccc2cccnc12` [Reference Example 133, reference compound], the IC50 against CDK6/CyclinD1 was more than 3 µM; in the experiment on MCF-7 cells it was more than 10 µM.

For `Cc1noc(C)c1-c1c(C(=O)N(C)C)cc2cnc(Nc3ccc(N4CC5(CCNC5)C4)cn3)nn12` [Reference Example 134, reference compound], the results for the 50% inhibitory concentration (IC50) on CDK6/CyclinD1 and in the experiment on MCF-7 cells were 1 to 3 µM and more than 10 µM, respectively.

Broadly, the IC50 is the concentration that gives 50% inhibition. High values mean a need for much substance, low ones inhibition by little substance.

Values taken from patent publication US20230002393A1, “CDK KINASE INHIBITOR” (BEIJING BENICALL BIOTECH CO., LTD., priority 2019, published 2023).
